Data published in US20050152835A1, “Technetium-99M glucarate methods of use for monitoring tissues” (priority 2003, published 2005).

Tests used:
MCF7/D40 cells = assay: Drug resistance of MCF7/D40 cells relative to MCF7/S; format: cell-based, human
[1] = test system: plasmocytoma (localized myeloma); assay: Scintigraphy of a patient with plasmocytoma of T8; format: in vivo, human; details: for scan finding at diagnosis: patient with lytic lesion of T8, posterior view
Method: A patient complaining of invalidation pain in the spine (mid-thorax) for about two months. Peak of monoclonal IgG-k in serum. Bence-Jones protein in urine. Spine CT. lytic lesion of T8, with soft tissue infiltration. […] Uptake was obvious in the early images, 15 and 30 min p.i., late acquisition, 6 hr p.i., made the tracer uptake much more obvious.

MCF7/S tumor xenograft = assay: FASTSPECT dynamic imaging and tumor washout kinetics, drug-sensitive xenograft; format: in vivo, SCID mice
Method: (§1) Tumor cell lines used. MCF7/S: Cells are parental, drug (doxorubicin) sensitive, breast carcinoma cells. MCF7/D40: Cells were generated in vitro by successive culturing parental MCF7 cells in slowly increasing concentrations of doxorubicin with a total selection time of 31 months. Twenty-eight SCID mice were studied. MCF7/S or MCF7/D40 tumors were grown for 10-14 days after subcutaneous injection of 1×10^6 cells into the right thigh. Groups of mice with the xenografted tumors included: (MCF7/S group: MIBI: n=9; GLA: n=8) and (MCF7/D40 group: MIBI: n=6; GLA: n=5).
(§2) The dynamic imaging system SPECT consisted of 24 small modular gamma cameras. Each modular camera consists of a 10 cm×10 cm NaI(Tl) scintillation crystal, 4 square (5 cm×5 cm) Hamamatsu photomultiplier tubes. The system included a cylindrical aperture with twenty four 1-mm diameter pinholes drilled in the aperture. A point source in the center of the field of view is projected simultaneously to the center of each camera. Total magnification is 3.5 in a 3.0 cm×3.2 cm×3.2 cm field of view. The spatial resolution of the system is about 1.0 mm, with a sensitivity of 13.3 cps/μCi.
(§3) ^99mTc-GLA or ^99mTc-MIBI (5-8 mCi, 185-296 MBq) was injected via a jugular vein catheter. Dynamic images were acquired for 2 hours. Twenty-four projections were obtained, one from each camera. Each scintillation event within the camera's NaI crystal was registered as the digitized outputs from the camera's four photomultiplier tubes. The four photomultiplier outputs were compared to a 20-bit look-up table derived from a calibration procedure that involved moving a collimated source across the camera face.
(§4) Tumor image reconstruction was performed using 100 iterations of the maximum-likelihood expectation-maximization (ML-EM) algorithm. Using SlicerDicer software, three-dimensional images were computed to provide images in a 33×49×49 voxels format, and generate tomographic transaxial, coronal and sagittal slices with one-pixel thickness (1.0 mm). Regions of interest (ROI) over the tumors were created and applied to the dynamic images for determining time-activity curves. The percent washout rate relative to the peak uptake of the tumors were calculated.

MCF7/D40 tumor xenograft = assay: FASTSPECT dynamic imaging and tumor washout kinetics, drug-resistant (Pgp positive) xenograft; format: in vivo, SCID mice; details: for time window after injection in which tumor could be localized/visualized: then activity dropped to background
Method: as §1, §2, §3, §4

MCF7/S tumors = assay: Biodistribution in mice bearing MCF7/S tumors; format: in vivo, SCID mice
Method: as §1, §3
(§5) Tumors and organs were harvested and counted in a dose calibrator. The percent injected dose per gram (% ID/g) was calculated. Membrane preparations made from MCF7/S and MCF7/D40 tumors were immunoblotted with the mouse monoclonal antibody C219 against Pgp followed by a secondary antibody, which was detected by chemiluminescence. […] No immunodetectable MDR1 Pgp was presented in MCF7/S cells.

MCF7/D40 tumors = assay: Biodistribution in mice bearing MCF7/D40 tumors; format: in vivo, SCID mice
Method: as §1, §3, §5

breast cancer = details: cited from earlier work
adenosine A1 receptor = biological target: T1, adenosine A1 receptor (Rattus norvegicus, UniProt P25099); assay: Adenosine receptor-mediated cardioprotection in rat hearts with ischemia-reperfusion, assessed by 99mTc-glucarate imaging; format: in vivo
T1 construct: from tissue; host or cells: living rat, heart (myocardium) in vivo
T1 sequence (P25099 1-326): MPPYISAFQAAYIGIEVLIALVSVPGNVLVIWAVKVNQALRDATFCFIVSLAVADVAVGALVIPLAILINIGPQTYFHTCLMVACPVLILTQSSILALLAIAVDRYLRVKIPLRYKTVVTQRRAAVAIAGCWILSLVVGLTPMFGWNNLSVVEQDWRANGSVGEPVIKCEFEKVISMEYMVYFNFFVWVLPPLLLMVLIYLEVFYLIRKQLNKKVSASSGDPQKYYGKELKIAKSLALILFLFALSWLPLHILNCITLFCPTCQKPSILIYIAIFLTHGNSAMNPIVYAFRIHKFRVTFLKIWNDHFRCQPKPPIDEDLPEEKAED
Method: Experimental groups in this example included: Group-I (IR30, n=11): Animals subjected to a treatment of 30-min regional myocardial ischemia and 30-min reperfusion by ligating and releasing the left coronary artery (LCA). Group-II: (IPC Group, n=6): Rats were preconditioned with a sequence of 6 cycles of 4-min LCA occlusion and 4-min re-flow; 10 min later, the rats underwent a 30-min LCA occlusion followed by 30-min re-flow. Group-III (CCPA, n=6): rat chests were opened for the equivalent time for IPC in Group-II. Ten minutes prior to 30-min LCA occlusion and 30-min reperfusion, CCPA (40 μg/kg) was intravenously injected with 5 cycles of 4-min infusion and 4-min no infusion. Group-IV (SPT, n=5): animals subjected to IPC as the protocol in Group-II, SPT (10 mg/kg) was intravenously infused 2-min before and during subsequent ischemia-reperfusion.
Treatments in this example consisted of control (IR30, n=8): no preconditioning; equivalent open-chest time; IPC (n=6): 4-min LCA occlusion, 4-min reflow, 5 cycles; CCPA (n=6): 4-min IV infusion, 4-min no infusion, 5 cycles; SPT (n=4): IPC first, SPT IV infusion 2 min before and during LCA occlusion and re-flow.

[2] = Table 2, MCF7/S mice, 2 hours after injection
[3] = Table 4 (Example 3), MCF7/S mice
[4] = Table 2, MCF7/D40 mice, 2 hours after injection
[5] = Table 4 (Example 3), MCF7/D40 mice

Question: With `COc1cccc2c1C(=O)c1c(O)c3c(c(O)c1C2=O)C[C@@](O)(C(=O)CO)C[C@@H]3O[C@H]1C[C@H](N)[C@H](O)[C@H](C)O1` [doxorubicin] as the compound, how does the “resistance of MCF7/D40 compared to MCF7/S” value (MCF7/D40 cells) read?
Answer: 40 fold

Question: What does the source list for `O.O.O=P([O-])([O-])CP(=O)([O-])[O-].[99Tc+4]` [^99mTc-MDP]?
Answer: scan finding at diagnosis [1]: focally increased uptake corresponding to T8; scan finding after about 1 year of stabilization and external radiotherapy ([1]; posterior view): inhomogeneous tracer distribution, without clear focally increased uptake

Question: With `[C-]#[N+]CC(C)(C)OC.[C-]#[N+]CC(C)(C)OC.[C-]#[N+]CC(C)(C)OC.[C-]#[N+]CC(C)(C)OC.[C-]#[N+]CC(C)(C)OC.[C-]#[N+]CC(C)(C)OC.[Tc]` [^99mTc-sestamibi, reference compound] as the compound, how does the “two-hour fractional washout (% peak activity)” value (MCF7/S tumor xenograft) read?
Answer: 50.2±5.3%

Question: And the “time after injection until which tumor stayed visualized/detectable” value (MCF7/S tumor xenograft; FASTSPECT, 120 min acquisition)?
Answer: 120 min

Question: And the “two-hour fractional washout (% peak activity)” value (MCF7/D40 tumor xenograft)?
Answer: 71.7±1.7%

Question: What about the “time window after injection in which tumor could be localized/visualized” value (MCF7/D40 tumor xenograft) of the same compound?
Answer: 2 to 4 min

Question: What about the “time window after injection in which tumor could be localized/visualized” value (MCF7/D40 tumor xenograft; listed as 99mTc-MIBI) of the same compound?
Answer: 2 to 3 min

Question: And the “Biodistribution, blood” value (MCF7/S tumors; [2])?
Answer: 0.06 ± 0.01 % ID/gm

Question: And the “Biodistribution, heart” value (MCF7/S tumors; [2])?
Answer: 10.61 ± 0.89 % ID/gm

Question: And the “Biodistribution, kidneys” value (MCF7/S tumors; [2])?
Answer: 21.32 ± 2.03 % ID/gm

Question: What about the “Biodistribution, liver” value (MCF7/S tumors; [2]) of the same compound?
Answer: 7.02 ± 1.01 % ID/gm

Question: And the “Biodistribution, lung” value (MCF7/S tumors; [2])?
Answer: 0.95 ± 0.16 % ID/gm

Question: And the “Biodistribution, muscle” value (MCF7/S tumors; [2])?
Answer: 1.37 ± 0.12 % ID/gm

Question: What about the “Biodistribution, tumor” value (MCF7/S tumors; [2]) of the same compound?
Answer: 0.64 ± 0.07 % ID/gm

Question: What about the “Biodistribution, blood” value (MCF7/S tumors; [3]) of the same compound?
Answer: 0.06 ± 0.01 % ID/g

Question: And the “Biodistribution, heart” value (MCF7/S tumors; [3])?
Answer: 10.61 ± 0.89 % ID/g

Question: What about the “Biodistribution, kidneys” value (MCF7/S tumors; [3]) of the same compound?
Answer: 21.32 ± 2.03 % ID/g

Question: And the “Biodistribution, liver” value (MCF7/S tumors; [3])?
Answer: 7.02 ± 1.01 % ID/g

Question: And the “Biodistribution, lung” value (MCF7/S tumors; [3])?
Answer: 0.95 ± 0.16 % ID/g

Question: What about the “Biodistribution, muscle” value (MCF7/S tumors; [3]) of the same compound?
Answer: 1.37 ± 0.12 % ID/g

Question: And the “Biodistribution, tumor” value (MCF7/S tumors; [3])?
Answer: 0.64 ± 0.07 % ID/g

Question: What about the Tumor/Blood ratio (MCF7/S tumors; [3]) of the same compound?
Answer: 13.97 ± 2.89

Question: And the Tumor/Muscle ratio (MCF7/S tumors; [3])?
Answer: 0.48 ± 0.05

Question: And the “Biodistribution, blood” value (MCF7/D40 tumors; [4])?
Answer: 0.07 ± 0.01 % ID/gm

Question: What about the “Biodistribution, heart” value (MCF7/D40 tumors; [4]) of the same compound?
Answer: 9.78 ± 1.65 % ID/gm

Question: What about the “Biodistribution, kidneys” value (MCF7/D40 tumors; [4]) of the same compound?
Answer: 17.71 ± 3.13 % ID/gm

Question: What about the “Biodistribution, liver” value (MCF7/D40 tumors; [4]) of the same compound?
Answer: 7.67 ± 1.52 % ID/gm

Question: What about the “Biodistribution, lung” value (MCF7/D40 tumors; [4]) of the same compound?
Answer: 0.61 ± 0.12 % ID/gm

Question: What about the “Biodistribution, muscle” value (MCF7/D40 tumors; [4]) of the same compound?
Answer: 1.09 ± 0.32 % ID/gm

Question: And the “Biodistribution, tumor” value (MCF7/D40 tumors; [4])?
Answer: 0.27 ± 0.05 % ID/gm

Question: What about the “Biodistribution, blood” value (MCF7/D40 tumors; [5]) of the same compound?
Answer: 0.07 ± 0.01 % ID/g

Question: And the “Biodistribution, heart” value (MCF7/D40 tumors; [5])?
Answer: 9.84 ± 1.39 % ID/g

Question: What about the “Biodistribution, kidneys” value (MCF7/D40 tumors; [5]) of the same compound?
Answer: 19.63 ± 3.48 % ID/g

Question: And the “Biodistribution, liver” value (MCF7/D40 tumors; [5])?
Answer: 8.29 ± 1.43 % ID/g

Question: And the “Biodistribution, lung” value (MCF7/D40 tumors; [5])?
Answer: 0.61 ± 0.10 % ID/g

Question: And the “Biodistribution, muscle” value (MCF7/D40 tumors; [5])?
Answer: 1.08 ± 0.27 % ID/g

Question: What about the “Biodistribution, tumor” value (MCF7/D40 tumors; [5]) of the same compound?
Answer: 0.27 ± 0.05 % ID/g

Question: What about the Tumor/Blood ratio (MCF7/D40 tumors; [5]) of the same compound?
Answer: 3.93 ± 0.41

Question: What about the Tumor/Muscle ratio (MCF7/D40 tumors; [5]) of the same compound?
Answer: 0.31 ± 0.05

Question: And the “scan finding at diagnosis” value [1]?
Answer: negative for bone marrow infiltration

Question: What about the negative predictive value (breast cancer; in vivo) of the same compound?
Answer: 83.4%

Question: What about the “overall institutional sensitivity for breast cancer detection” value (breast cancer; in vivo) of the same compound?
Answer: 75.4%

Question: What about the “overall institutional specificity for breast cancer detection” value (breast cancer; in vivo) of the same compound?
Answer: 82.7%

Question: And the positive predictive value (breast cancer; in vivo)?
Answer: 74.5%

Question: And the “sensitivity for tumors under 1 cm in size” value (breast cancer; tumors under 1 cm)?
Answer: 48.2%

Question: With `Cn1c(=O)c2[nH]c(-c3ccc(S(=O)(=O)O)cc3)nc2n(C)c1=O` [SPT, 8-(p-sulfophenyl)-theophylline] as the compound, how does the “effect on cardioprotection of ischemic preconditioning (IPC)” value (adenosine A1 receptor; 10 mg/kg i.v. infusion after IPC, before and during ischemia-reperfusion) read?
Answer: blocked

Question: Which “effect on cardioprotection of ischemic preconditioning (IPC)” value (adenosine A1 receptor; 40 μg/kg i.v. instead of IPC, before 30-min LCA occlusion and 30-min reperfusion) does the source give for `OC[C@H]1O[C@@H](n2cnc3c(NC4CCCC4)nc(Cl)nc32)[C@H](O)[C@@H]1O` [CCPA, 2-chloro-N6-cyclopentyladenosine] here?
Answer: simulated
